These results are taken from US11622942B2, “Benzene-1,3,5-tricarboxamide derived ester lipids and uses thereof” (Ohio State Innovation Foundation, priority 2017, dated 2023).

This test deals with Hep3B cells. Description: LLNs-mediated luciferase transfection assay (FLuc mRNA delivery). It is filed as cell-based, human. To be noted: FLuc mRNA-loaded LLNs, 6 h transfection, normalized to TT3 (FIG. 1). As for the experimental part:
The synthesized compounds were formulated with 1,2-dioleoyl-sn-glycero-3-phosphoethanolamine (DOPE), cholesterol, and mRNA. The formulated nanoparticles were evaluated with a luciferase expression assay.
Benzene-1,3,5-tricarbonyl trichloride (12) was reacted with Boc-protected diamine (13) in order to produce the intermediates (14) (Broaders, K. E. et. al. Chem. Commun. (Cambridge, U. K.) 2011, 47, 665-667). Deprotection of (14) gave compound (11), which underwent reductive amination to afford the desired products compounds #1 to #10 (See Dong, Y. et. al. Proc. Natl. Acad. Sci. U.S.A 2014, 111, 3955-3960). The structures of compounds #1 to #10 were confirmed by ^1H NMR spectroscopy (See FIGS. 12-21) and mass spectrometry (See FIGS. 2-11). […] Meanwhile, particle properties (including size, zeta potential, and entrapment efficiency) are measured using a dynamic light-scattering instrument and a ribogreen assay (Love Kevin, T. et. al. Proc. Nat. Acad. Sci. U.S.A 2010, 107, 1864-1869; Chen, D. et. al. J. Am. Chem. Soc. 2012, 134, 6948-6951).
Next, delivery efficiency and cytotoxicity of compounds #1 to #10 (LLNs-FLuc mRNA) was evaluated in Hep3B cells, a human hepatoma cell line. […]

In the case of `CCCCC(CCC)OC(=O)CCCCCCCCN(CCCCCCCCC(=O)OC(CCC)CCCC)CCCNC(=O)c1cc(C(=O)NCCCN(CCCCCCCCC(=O)OC(CCC)CCCC)CCCCCCCCC(=O)OC(CCC)CCCC)cc(C(=O)NCCCN(CCCCCCCCC(=O)OC(CCC)CCCC)CCCCCCCCC(=O)OC(CCC)CCCC)c1` (stereo not shown) [Compound 10], the “expression of the firefly luciferase” value is given as “highest expression”.
